{"source": "patent US11939294B1", "about": "(priority 2023, dated 2024)", "tested_on": "multidrug-resistant (MDR) strains of Mycobacterium tuberculosis", "test": "microbe, parasite or virus in culture", "format": "cell-based", "settings": "192 h, read-out: MIC (μg/mL) MDR-TB, MDR-TB: resistant at least to isoniazid and rifampicin, REMA, 8 days incubation at 37° C.", "data": [{"smiles": "Cc1cc(C)c[n+](CC(=O)c2ccc(F)cc2)c1.[Br-]", "note": "[Compound 3d, 1-(2-(4-Fluorophenyl)-2-oxoethyl)-3,5-dimethylpyridin-1-ium bromide]", "values": [{"measurement": "MIC", "value": "~8", "unit": "µg/mL"}]}]}
